Measurements published in publication PMC8876511, “Two out of Three Musketeers Fight against Cancer: Synthesis, Physicochemical, and Biological Properties of Phosphino Cu^I, Ru^II, Ir^III Complexes” (Pharmaceuticals, 2022).

Legend:
Type in all cases: cell-based, human
PANC-1 cells = experiment: MTT cytotoxicity assay, PANC-1
Experimental: (§1) Moreover, to investigate the activity of synthesized complexes as potential anticancer agents, their cytotoxicity toward a series of human cancer cell lines and a non-cancer cell line (HaCaT) was evaluated using the MTT assay. […] In addition, we also determined the cytotoxic activity of free ligands toward selected cancer cells. […] However, this effect depends on the cell line. […] The best values of cytotoxic activity of compounds have been obtained after 72 h of cell incubation. Additionally, synthesized complexes had high sensitivity to A549 cells, so this cell line was selected as the research subject for antitumor activity.
(§2) Since most of the studied compounds are insoluble in aqueous media (Dulbecco’s Modified Eagle’s Medium or minimum essential medium (MEM, Corning), therefore, they needed to be pre-dissolved in DMSO for biological tests. DMSO concentration was kept below 1% in each tested concentration of each compound. Cytotoxicity was assessed by MTT assay performed according to the protocols described previously in the following experimental approaches: 6 h + 24 h, 24 h + 24 h, and 72 h + 24 h. In brief, 5×10^3 per well (0.2 mL) in the two first approaches, while 1×10^4 cells in the case of longer incubation time were seeded in 96-well flat-bottom microtiter plate, were incubated with the tested complexes at various ranges of concentrations. After an appropriate incubation time of 6, 24, or 72 h, the cells were washed thee time with PBS and fresh medium was applied for a further 24 h in each approach. Various compound concentrations (dilutions in proper medium supplemented with 1% FBS) were tested in five replicates and repeated at least three times. Determined values of IC50 (concentration of a drug required to inhibit the growth of 50% of the cells) are given as mean + S.D. (Standard Deviation). IC50 values were determined, from the plots of cell viability in the presence of various concentrations of each compound by matching dose–response curves and using the Origin 9.0 software. Furthermore, post-treatment survival assessment of the treated cells was analyzed under an inverted fluorescence microscope (Olympus IC51, Japan) with an excitation filter 470/20 nm. For this, cells were stained with two versatile fluorescence dyes: fluorescein diacetate (FDA, 5 mg/mL) and propidium iodide (PI, 5 mg/mL) in standard conditions in the dark for 20 min. Before visualization, dyes were removed and cells were washed with PBS twice.

A549 cells = experiment: Intracellular accumulation, fluorescence microscopy; details: A549, 5 μM, 24 h
Experimental: It has been reported that the cellular uptake efficacy of a compound is affected by many factors, such as lipophilicity. Synthesized complexes indicate blue fluorescence. Thus, their detection using fluorescence microscopy is possible. For this purpose, A549 (human lung adenocarcinoma epithelial) cells were incubated with Ir(III) complexes (5 μM) for 24 h and analyzed. Phalloidin was co-incubated with Ir(III) complexes to determine subcellular localization further.
The intracellular accumulation of the compound was assessed in the A549 cell line. Before imaging, cells were seeded on microscopic slides at a density of 1×10^5 cells and were kept at 37 °C with 5% CO2 humidified atmosphere for 24 h. After being washed with fresh medium, the cells were incubated with 5 μM solution of tested compound in cell medium for 24 h. Next, after being washed with HBSS, the cells were fixed for 10 min in 3.8% PFA and incubated with specific intracellular organelle probes: 200 nM Mito-Tracker green, 1 μg/mL Quinacrine, and 0.25 nM of PhalloidinAtto 488 (Molecular Probes, Invitrogen Life Technologies; Thermo Fisher Scientific, Waltham, MA, USA), diluted in HBSS buffer. After 30 min incubation, at 37 °C, in the dark, the cells were washed with HBSS two times, and the slide was transferred to the microscope stage and cells were visualized under a fluorescent Zeiss Axio Observer microscope. Registered images were analyzed with the Zeiss ZEN software.

HaCaT cells [1] = experiment: MTT cytotoxicity assay, HaCaT (non-cancer)
Experimental: as §1
(§3) MCF7 cell line (human breast adenocarcinoma, morphology: epithelial-like, ATCC: HTB-22) and A549 cell line (human lung adenocarcinoma, morphology: epithelial, ATCC: CCL-185); HaCaT (human keratinocyte) were cultured in Dulbecco’s Modified Eagle’s Medium (DMEM, Corning, Poland) with phenol red, supplemented with 10% fetal bovine serum (FBS) and with 1% streptomycin/penicillin. Du-145 cell line (human prostate carcinoma); derived from metastatic site: brain was cultured in minimum essential medium (MEM, Corning) with only 10% fetal bovine serum (FBS). Cultures were incubated at 37 °C under a humidified atmosphere containing 5% CO2. Cells were passaged using a solution containing 0.05% trypsin and 0.5 mM EDTA. All media and other ingredients were purchased from ALAB, Poland.
as §2

MCF-7 cells = experiment: MTT cytotoxicity assay, MCF-7
Experimental: as §1, §3
as §2, with “Cytotoxicity was assessed by MTT assay performed according to the protocols described previously in the following experimental approaches: 6 h + 24 h, 24 h + 24 h, and 72 h + 24 h.” left out, “After an appropriate incubation time of 6, 24, or 72 h, the cells were washed thee time with PBS and fresh medium was applied for a further 24 h in each approach.” left out

HaCaT cells [2] = experiment: MTT cytotoxicity assay, HaCaT (non-cancer); details: 48 h

Compound | IC50 (PANC-1 cells; 24 h) [µM] | IC50 (PANC-1 cells; 72 h) [µM] | penetration into cells (A549 cells) | subcellular localization (A549 cells) | IC50 (HaCaT cells [1]; 24 h) [µM] | IC50 (HaCaT cells [1]; 72 h) [µM] | IC50 (MCF-7 cells; 24 h) [µM] | IC50 (MCF-7 cells; 48 h) [µM] | IC50 (MCF-7 cells; 72 h) [µM] | IC50 (HaCaT cells [2]) [µM]
CCN(CC)C[P+](c1ccccc1)(c1ccccc1)[Ir-3]([Cl])([Cl])[C]1(C)C(C)=C(C)C(C)=C1C [1a, Ir(η^5-Cp*)Cl2Ph2PCH2N(CH2CH3)2] | 143 ± 3 | 91 ± 13 | can penetrate A549 cells | signal in whole (retain within the cytoplasm) cells with relative higher intensity in the nuclei | 456 ± 11 | 320 ± 19 | 189 ± 9 | 184 ± 6 | 85 ± 8 | 446 ± 26
Ru(η^6-p-cymene)Cl2Ph2PCH2N(CH2CH3)2 [1b] | 146 ± 5 | 128 ± 14 | can penetrate A549 cells | localize mainly in nuclei | 446 ± 20 | 303 ± 20 | 295 ± 12 | 352 ± 25 | 145 ± 15 | 545 ± 33
